This assay has as its system P. falciparum 3D7 growth, pLDH absorbance. The assay is described as follows: blood-stage malaria parasite growth potency – strain 3D7, dose response (AID 2305).
`OC1CCCN(Cc2ccc(-c3ccc(-c4nc5ccc(F)cc5[nH]4)s3)cc2)C1` (centres undefined) had a 50% inhibitory concentration (IC50) of 850 nM. The figure for `O=C(/C=C/c1ccc(Cl)c(Cl)c1)N1CCC(CN2CCC(c3c[nH]c4ccc(O)cc34)CC2)CC1` is 780 nM; for `OCCCCCCNc1nc(NCc2ccccc2-c2ccc(C(F)(F)F)cc2)nc(N2CCNCC2)n1` it is 1440 nM. Compound `COc1cc2c(cc1OC)CC(NCc1ccc(-c3ccc4nc[nH]c4c3)cc1)C2` displayed an IC50 of 850 nM. As to `CC1CCN(c2nc(C(=O)Nc3ccc(F)cc3C(F)(F)F)c(C(C)C)s2)CC1`, the IC50 stood at 230 nM. `OC1CCCN(Cc2ccc(-c3ccc(-c4nc5ccc(F)cc5[nH]4)cc3)cc2)C1` (centres undefined) came in with an IC50 of 850 nM.

As for `COc1ccc(S(=O)(=O)N2CCCC(C)C2)cc1N1CCN(C(=O)c2ccc([N+](=O)[O-])o2)CC1` (centres undefined), the IC50 stood at 1250 nM. Next, `COc1ccc2cc(-c3nc(-c4c(Cl)cccc4Cl)[nH]c3-c3ccnc(NCCC4CCCN4C)c3)ccc2c1` (centres undefined): 1030 nM; `CCCNC(=O)CN1CN(c2ccccc2)C2(CCN(C(=O)c3ccc(C(C)(C)C)cc3)CC2)C1=O`: 470 nM. `Cc1ccc(-c2nnc(Nc3ccc(CC(N)=O)cc3)c3ccccc23)cc1S(=O)(=O)NCC1CCCO1` (centres undefined) showed a 50% inhibitory concentration (IC50) of 790 nM.

The compound `COc1ccc(C=NNc2c3ccccc3nc3ccccc23)c2ccccc12` came in with an IC50 of 1130 nM.

`Cc1ccc(C(NC(=O)C2CCCCC2)c2ccc3cccnc3c2O)cc1` (centres undefined) returned an IC50 of 950 nM.

Take `N#Cc1ccc2c(c1)CCN(CCC1CCC(NC(=O)c3ccc(-c4ccccc4)s3)CC1)CC2` (centres undefined): the half-maximal inhibitory concentration (IC50) was found to be 680 nM. The figure for `Cc1cc(-c2ccc(CNCc3ccc(F)cc3)cc2)ccc1S(=O)(=O)NCCN1CCCC1` is 720 nM; for `O=[N+]([O-])c1ccc(/C=N/Nc2cc(-c3ccccc3)nc3ccccc23)o1` it is 860 nM. The figure for `COc1cc(C(=O)Nc2cccc(-c3nc4ccccc4[nH]3)c2)ccc1OC(C)=O` is 760 nM; for `CCN(CC)CCN(Cc1ccc(-c2ccc(C(F)(F)F)s2)cc1)C(=O)Cn1c(CCc2cccc(F)c2F)nc(=O)c2ccccc21` it is 990 nM; for `CC(C)(C)CN1C(=O)C(c2ccccc2)(c2ccccc2)N=C1N` it is 520 nM. Next, `CC(C)(C)C(=O)Nc1ccc(N2CCN(C(c3ccccc3)c3ccccc3)CC2)c(Cl)c1`: 660 nM. Compound `Cc1[nH]c(C)c(-c2ccc(-c3cccc(OC(F)(F)F)c3)nc2)c(=O)c1Cl` yielded a concentration for half-maximal inhibition (IC50) of 70 nM. Next, `COc1ccc(CCCCN2C(=O)C(c3ccccc3)(c3ccccc3)N=C2N)cc1`: 860 nM; `O=C(O)C[C@H](NC(=O)c1cc(-c2ccc3c(c2)OCO3)no1)C(=O)O` (tested in a mixture with another compound): 190 nM; `OC(CNCc1cccc(Oc2ccc(Cl)cc2)c1)c1cc(C(F)(F)F)cc(C(F)(F)F)c1` (centres undefined): 260 nM. Next, `CC(C)=CC1C(C(=O)n2c(N)nc3ccccc32)C1(C)C` (centres undefined): 190 nM; `COc1ccc(Cl)cc1N1CCN(CCCNC(=O)c2ccc(-c3nc4cc(Cl)c(Cl)cc4[nH]3)c(C)c2)CC1`: 870 nM; `Cc1nc(NC2=NCN(CCCN3CCOCC3)CN2)nc2c(C)cccc12`: 1130 nM. The figure for `Cc1ccc(CN2CCCN(Cc3cccc(NC(=O)c4ccc(Cl)c(Cl)c4)c3)CC2)cc1` is 900 nM; for `CCc1ccc(CC(C)NCC(O)c2ccccc2)cc1` (centres undefined) it is 890 nM; for `O=C(NC(=O)c1ccccc1O)c1ccccc1O` it is 700 nM. The compound `CC(C)CNCc1cccc(-c2cccc(CN(CCCN3CCN(C)CC3)C(=O)CCC3CCCC3)c2)c1` registered an IC50 of 620 nM. For `CN(c1ccc(NC(=O)Nc2cc(C(C)(C)C)on2)cc1)c1ccnc(NCCN2CCOCC2)n1`, the IC50 is 1120 nM.

The compound `Cc1cc(N[C@@H](CC(C)C)C(=O)Nc2ccccc2)nc(NCc2ccccc2C)n1` had an IC50 of 780 nM. Regarding `CC(C)CNCc1ccc(-c2cccc(CN(C(=O)Nc3ccccc3)C3CCN(Cc4ccccc4)CC3)c2)cc1`, the IC50 worked out at 410 nM. Next, `CN1CCC(NCc2cccc(-c3nn(C)c4nc(NC5CCCC5)ncc34)c2)CC1`: 1020 nM; `CCOC(=O)c1ccc(NC(=O)Nc2ccc(-c3ccc(-c4nc5ccc(C(F)(F)F)cc5[nH]4)cc3)cc2)cc1`: 270 nM. Next, `COc1ccc(C(C(=O)NC2CCN(C[C@H](O)c3ccnc4ccc(OC)cc34)CC2)N2CCN(c3ccc(F)cc3)CC2)cc1` (some centres undefined): 210 nM; `Cc1ccc(-c2nnc(Nc3ccc(OCC(N)=O)cc3)c3ccccc23)cc1S(=O)(=O)NCC1CCCO1` (centres undefined): 750 nM. `CCCCc1ccc(-c2ccc(-c3c(C)[nH]c(C)c(Br)c3=O)cn2)cc1` had an IC50 of 60 nM. In turn, `CC(C)(C)OC(=O)NCCc1cccc(-c2c[nH]c3ncc(-c4cccc(NS(C)(=O)=O)c4)cc23)c1` returned a half-maximal inhibitory concentration (IC50) of 680 nM. In the case of `Cc1[nH]c(C)c(-c2ccc(-c3ccccc3Cl)nc2)c(=O)c1Cl`, the IC50 came to 220 nM. The figure for `Cc1cccc(S(=O)(=O)Nc2cccc(CCN3CCC(N4CCCCC4)CC3)c2)c1` is 1330 nM; for `CC1CCCN(C(=O)c2cc(-c3ccccn3)nc3c(Cl)cccc23)C1` (centres undefined) it is 1080 nM; for `COc1ccc(Cn2c(Nc3cccc(C(F)(F)F)c3)nc3cc(C(=O)NC4CC4)cnc32)cc1Cl` it is 730 nM.

`Cc1nc(-c2cccc(Nc3nccc(NCC(O)c4ccccc4C(F)(F)F)n3)c2)cs1` (centres undefined) displayed a half-inhibitory concentration (IC50) of 830 nM.

Source of the values: PubChem BioAssay AID2305 (GlaxoSmithKline (GSK), 2010).
